Results reported in PMC10914731, “Homo-BacPROTAC-induced degradation of ClpC1 as a strategy against drug-resistant mycobacteria” (Nature Communications, 2024).
Values after ≈ are worked out from the molar mass of the structure shown. Values joined by “and” are separate entries in the source; they are usually repeats but may differ in a detail not shown here. Equal entries are not always repeated. Where two headings read alike, the source gives them in different places.

Legend:
[1] = type: in vitro ADME, Human; conditions: clearance in hepatocytes
[2] = tested on: Msm 607; experiment: microbe, parasite or virus in culture; type: cell-based
[3] = type: in vitro ADME, Mice; conditions: clearance in microsomes
Procedure, shortened: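 Metabolic depletion in liver microsomes (0.5 mg/ml, 1 mM NADPH, 37 °C) starting from 1 µmol/l test compound, sampled at multiple times with acetonitrile quench. LC-MS/MS quantitation; half-life converted to %Qh.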

[4] = tested on: Pseudomonas aeruginosa; experiment: MIC ESKAPES panel, Pseudomonas aeruginosa; type: cell-based
Description: (§1) Minimum inhibitory concentration (MIC) against ESKAPES panel of Gram positive and Gram negative pathogens (Enterococcus faecium, Staphylococcus aureus, Klebsiella pneumoniae, Acinetobacter baumannii, Pseudomonas aeruginosa, Enterobacter cloacae and Salmonella typhimurium [ESKAPES panel]) were determined at the FNDR by the standard broth dilution method [CLSI, M100]. […] Mueller Hinton broth (MHB) medium was used to grow ESKAPES panel strains. The individual cultures were added as 200 μL (inoculum of 3–7 × 10^5 cfu/ml) to the respective assay plates in each well to all columns, except the media control (200 μL of medium). […] The assay plates were incubated at 37 °C, and the results were noted on the 2nd day as turbidometric readout. The clear wells indicated inhibition of growth, while the turbid wells indicated uninhibited growth.

[5] = tested on: Caco-2 monolayers; experiment: in vitro
Procedure, shortened: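 Values are bidirectional Caco-2 apparent permeabilities, P(A−B) and P(B−A), given in 10^-6 cm s-1. The efflux ratio divides P(B−A) by P(A−B), and intrinsic permeability averages the two directions.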

[6] = tested on: Mtb # 8673; experiment: microbe, parasite or virus in culture; type: cell-based
[7] = tested on: Mtb ATCC 35825; experiment: microbe, parasite or virus in culture; type: cell-based
[8] = tested on: Mtb # 11291; experiment: microbe, parasite or virus in culture; type: cell-based
[9] = tested on: M. tuberculosis H37Rv (ATCC 27294); experiment: microbe, parasite or virus in culture; type: cell-based
[10] = molecular target: endogenous ClpC1 in Msm #607 cells (Mycolicibacterium smegmatis, UniProt A0R574); type: cell-based, M. smegmatis; conditions: for ClpC1/Total protein / ClpC1 peak area / Total protein: well replicates of independent experiments
[11] = tested on: Enterococcus faecium; experiment: MIC ESKAPES panel, Enterococcus faecium; type: cell-based
Description: as §1

[12] = tested on: Mtb (katG del) ATCC 35822; experiment: microbe, parasite or virus in culture; type: cell-based; conditions: Mycobacterium tuberculosis
[13] = tested on: Klebsiella pneumoniae; experiment: MIC ESKAPES panel, Klebsiella pneumoniae; type: cell-based
Description: as §1

[14] = tested on: Mycobacterium abscessus; experiment: microbe, parasite or virus in culture; type: cell-based
[15] = Gram-Negative Bacteria, replicates 1-3, listed as 8 (UdSBI-0545)
[16] = single well replicates, listed as 8 (UdSBAI-0545)

Sequence of endogenous ClpC1 in Msm #607 cells (A0R574 whole entry): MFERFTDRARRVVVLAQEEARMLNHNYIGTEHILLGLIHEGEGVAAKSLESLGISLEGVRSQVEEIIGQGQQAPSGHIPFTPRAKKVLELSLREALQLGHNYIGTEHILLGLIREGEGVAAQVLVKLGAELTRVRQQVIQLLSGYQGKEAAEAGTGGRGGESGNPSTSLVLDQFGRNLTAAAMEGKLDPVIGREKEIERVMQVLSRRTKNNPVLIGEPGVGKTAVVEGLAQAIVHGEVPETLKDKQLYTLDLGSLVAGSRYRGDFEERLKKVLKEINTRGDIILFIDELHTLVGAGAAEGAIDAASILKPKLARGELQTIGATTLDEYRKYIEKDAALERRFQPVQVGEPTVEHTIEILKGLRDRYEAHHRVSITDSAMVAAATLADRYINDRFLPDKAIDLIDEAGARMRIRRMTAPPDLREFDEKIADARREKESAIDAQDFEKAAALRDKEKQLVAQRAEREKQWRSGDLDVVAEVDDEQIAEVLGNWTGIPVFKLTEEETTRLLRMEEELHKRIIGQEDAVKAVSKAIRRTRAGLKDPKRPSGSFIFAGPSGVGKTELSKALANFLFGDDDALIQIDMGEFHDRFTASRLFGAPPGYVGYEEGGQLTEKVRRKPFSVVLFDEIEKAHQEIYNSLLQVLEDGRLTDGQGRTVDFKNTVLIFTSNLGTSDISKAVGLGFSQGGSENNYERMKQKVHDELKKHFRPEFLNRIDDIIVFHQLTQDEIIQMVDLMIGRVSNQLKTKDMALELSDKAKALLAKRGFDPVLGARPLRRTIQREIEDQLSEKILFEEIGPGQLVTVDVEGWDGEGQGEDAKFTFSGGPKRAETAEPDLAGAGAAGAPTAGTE

COC(c1ccccc1)C1NC(=O)C(C)NC(=O)C(CC(C)CO)N(C)C(=O)C(Cc2cn(Cc3cn(CCOCCOCCOCCOCCn4cc(Cn5cc(CC6NC(=O)C(C(C)C)NC(=O)C(CC(C)C)N(C)C(=O)C(C(C)C)NC(=O)C(C(OC)c7ccccc7)NC(=O)C(C)NC(=O)C(CC(C)CO)N(C)C6=O)c6ccccc65)nn4)nn3)c3ccccc23)NC(=O)C(C(C)C)NC(=O)C(CC(C)C)N(C)C(=O)C(C(C)C)NC1=O (stereo not shown) [Compound 8]
Hepatocyte Human [1]: 12 %Qh | MIC ([2]; Mycolicibacterium smegmatis, 607, read-out: MIC Msm 607): 1.9 ± 0.9 µM (≈ 4.12 µg/mL) | MIC ([2]; Mycolicibacterium smegmatis, 607, read-out: MIC Msm #607, individual example (Supplementary Table 11)): 1.6 µM and 3.4 µg/mL | MIC ([2]; Mycolicibacterium smegmatis, ATCC607, Set-1, read-out: MIC (Msm ATCC607) Set-1): 3.12 µM and 6.78 µg/mL | MIC ([2]; Mycolicibacterium smegmatis, ATCC607, Set-2, read-out: MIC (Msm ATCC607) Set-2): 1.56 µM and 3.39 µg/mL | MIC ([2]; Mycolicibacterium smegmatis, ATCC607, Set-3, done at a different day than Set 1 and Set 2, read-out: MIC (Msm ATCC607) Set-3): 1.56 µM and 3.39 µg/mL | MIC ([2]; Mycolicibacterium smegmatis, ATCC607, mean of 3 experiments ± SD, read-out: MIC including standard deviations (Msm ATCC607)): 2.08 µM and 4.5 µg/mL | Microsomal Stability Mice [3]: 72 %Qh | MIC [4, 15]: >50 µM | MIC ([4]; Pseudomonas aeruginosa, Gram negative, n = 3 well replicates): > 50 µM | MIC ([4]; Pseudomonas aeruginosa, Gram-Negative Bacteria, replicates 1-3): > 109 µg/mL | CACO permeability PEAB ([5]; apical to basolateral): <0.0000027 cm/sec | Caco-2 permeability P (A-B) ([5]; apical to basolateral): < 0.6 10-6 cm s-1 | CACO permeability PEBA ([5]; basolateral to apical): <0.000001 cm/sec | Caco-2 permeability P (B-A) ([5]; basolateral to apical): < 0.3 10-6 cm s-1 | Caco-2 Int. Perm ([5]; mean value of P(A−B) and P(B−A)): 0.4 10-6 cm s-1 | MIC ([6]; Mycobacterium tuberculosis, mean, n = 2 well replicates): < 0.1 µM and < 0.2 µg/mL | MIC ([6]; Mycobacterium tuberculosis, single well replicates): < 0.1 µM and < 0.21 µg/mL | MIC [6, 16]: <0.1 µM | MIC Mtb # 8673 [6, 16]: <0.21 µg/mL | MIC ([7]; Mycobacterium tuberculosis, ATCC35825, mean, n = 2 well replicates): < 0.1 µM and < 0.2 µg/mL | MIC ([7]; Mycobacterium tuberculosis, ATCC35825, single well replicates): < 0.21 µg/mL and < 0.1 µM | MIC [7, 16]: <0.1 µM | MIC Mtb ATCC 35825 [7, 16]: <0.21 µg/mL | MIC ([8]; Mycobacterium tuberculosis, mean, n = 2 well replicates, read-out: MIC Mtb # 11291): < 0.1 µM and < 0.2 µg/mL | MIC ([8]; Mycobacterium tuberculosis, read-out: MIC Mtb # 11291, single well replicates): < 0.1 µM and < 0.21 µg/mL | MIC Mtb # 11291 [8, 16]: <0.21 µg/mL | MIC ([8]; single well replicates, listed as 8 (UdSBAI-0545), read-out: MIC Mtb # 11291): <0.1 µM | MIC ([9]; Mycobacterium tuberculosis, M. tuberculosis H37Rv 27294, single well replicates, read-out: MIC): 0.098 µM (≈ 0.213 µg/mL) | MIC ([9]; Mycobacterium tuberculosis, M. tuberculosis H37Rv strain, read-out: MIC Mtb H37Rv Mean ± SD): 0.4 ± 0.4 µM (≈ 0.868 µg/mL) | MIC ([9]; Mycobacterium tuberculosis, Mtb H37Rv (Supplementary Table 2), read-out: MIC Mtb): 0.4 ± 0.4 µM (≈ 0.868 µg/mL) | MIC ([9]; Mycobacterium tuberculosis, Mtb H37Rv, mean ± SD, n = 3 well replicates, read-out: MIC): 0.2 ± 0.1 µM (≈ 0.434 µg/mL) | MIC ([9]; Mycobacterium tuberculosis, Set 1, read-out: MIC (Mtb H37Rv) Set 1): 0.1 µM and 0.21 µg/mL | MIC ([9]; Mycobacterium tuberculosis, Set 2, read-out: MIC (Mtb H37Rv) Set 2): 0.05 µM and 0.1 µg/mL | MIC ([9]; Mycobacterium tuberculosis, Set 3, done at a different day than Set 1 and Set 2, read-out: MIC (Mtb H37Rv) Set 3): 0.1 µM and 0.21 µg/mL | MIC ([9]; Mycobacterium tuberculosis, individual example (Supplementary Table 11), read-out: MIC Mtb H37Rv): 0.1 µM and 0.2 µg/mL | MIC ([9]; Mycobacterium tuberculosis, mean of 3 experiments +/- SD, unit taken from the sets above in the same table, read-out: MIC data (Mtb H37Rv) (+/- SD)): 0.08 µM and 0.17 µg/mL | MIC ([9]; individual measurements (source data), listed as 8 (UdSBI-0545), read-out: Mtb MIC): 0.780 µM (2×) and 0.097 µM (2×) | DC50 ([10]; 24 hours, value of the earlier manuscript version quoted in the peer review file, read-out: average DC50, ClpC1 degradation): 571 nM | DC50 ([10]; Msm #607, 24 h of incubation, read-out: average DC50, endogenous ClpC1 degradation): 570 ± 400 nM | ClpC1/Total protein ([10]; conc. 0.00038147 µM): 0.2282 and 0.267 and 0.2648 and 0.2027 and 0.212 and 0.2298 and 0.7429 and 0.8229 and 0.7712 | ClpC1 peak area ([10]; conc. 0.00038147 µM): 294811 and 344226 and 322628 and 390018 and 426373 and 358944 and 302120 and 328285 and 319637 | Total protein ([10]; conc. 0.00038147 µM): 1323644 and 1229496 and 1207050 and 1454716 and 1623647 and 1404254 and 524970 and 518103 and 465460 | ClpC1/Total protein ([10]; conc. 0.00305176 µM): 0.2394 and 0.2569 and 0.2557 and 0.2218 and 0.1962 and 0.1042 and 0.78 and 0.7556 and 0.8129 | ClpC1 peak area ([10]; conc. 0.00305176 µM): 298033 and 275548 and 121574 and 410944 and 384208 and 424052 and 320906 and 252067 and 328696 | Total protein ([10]; conc. 0.00305176 µM): 1340459 and 981268 and 1285339 and 1343857 and 1404470 and 1166366 and 526872 and 508500 and 521664 | ClpC1/Total protein ([10]; conc. 0.0244141 µM): 0.2203 and 0.2456 and 0.2539 and 0.1932 and 0.1901 and 0.2179 and 0.789 and 0.7808 and 0.8172 | ClpC1 peak area ([10]; conc. 0.0244141 µM): 219991 and 270896 and 315004 and 406280 and 373553 and 423254 and 300752 and 349284 and 304692 | Total protein ([10]; conc. 0.0244141 µM): 1364922 and 1422232 and 1199890 and 1138728 and 1425365 and 1445718 and 514950 and 478415 and 517944 | ClpC1/Total protein ([10]; conc. 0.195312 µM): 0.1965 and 0.2082 and 0.2171 and 0.1985 and 0.1828 and 0.1625 and 0.6454 and 0.6178 and 0.5924 | ClpC1 peak area ([10]; conc. 0.195312 µM): 206233 and 279281 and 214864 and 343404 and 327767 and 310653 and 236077 and 257791 and 242759 | Total protein ([10]; conc. 0.195312 µM): 1201296 and 1238340 and 1118172 and 1039169 and 1528116 and 1322136 and 532053 and 530512 and 524388 | ClpC1/Total protein ([10]; conc. 1.5625 µM): 0.183 and 0.1832 and 0.1776 and 0.1788 and 0.1391 and 0.1421 and 0.6251 and 0.5883 and 0.5813 | ClpC1 peak area ([10]; conc. 1.5625 µM): 199828 and 195826 and 198204 and 278984 and 250174 and 259931 and 291643 and 223291 and 227414 | Total protein ([10]; conc. 1.5625 µM): 1593808 and 1218853 and 1280312 and 1117747 and 1407385 and 1394918 and 446304 and 425280 and 447143 | ClpC1/Total protein ([10]; conc. 100 µM): 0.09806 and 0.1539 and 0.02961 and 0.1406 and 0.1399 and 0.1212 and 0.4923 and 0.5713 and 0.5017 | ClpC1 peak area ([10]; conc. 100 µM): 152582 and 201776 and 136372 and 183701 and 277792 and 199452 and 19555.5 and 216020 and 1024.1 | Total protein ([10]; conc. 100 µM): 199420 and 1403452 and 34585.2 and 1085305 and 1442135 and 1125592 and 373184 and 486260 and 397564 | DC50 ([10]; mean of the measurements, read-out: DC50 Mean): 571 nM | MIC ([11]; Enterococcus faecium, Gram positive, n = 3 well replicates): > 50 µM | MIC ([11]; Enterococcus faecium, Gram-Positive Bacteria, replicates 1-3): > 109 µg/mL | MIC ([11]; Gram-Positive Bacteria, replicates 1-3, listed as 8 (UdSBI-0545)): >50 µM | MIC ([12]; ATCC35822, M. tuberculosis ATCC 35822, single well replicates): 0.195 µM (≈ 0.423 µg/mL) | MIC ([12]; ATCC35822, Mtb (katG del) ATCC 35822, mean ± SD, n = 3 well replicates): 0.2 µM (≈ 0.434 µg/mL) | MIC [13, 15]: >50 µM | MIC ([13]; Klebsiella pneumoniae, Gram negative, n = 3 well replicates): > 50 µM | MIC ([13]; Klebsiella pneumoniae, Gram-Negative Bacteria, replicates 1-3): > 109 µg/mL | MIC (µg/ml) Mycobacterium abscessus ([14]; Experiment 2, three replicate columns): >108.53 µg/mL | MIC ([14]; Experiment 2, three replicate columns, read-out: MIC (µM) Mycobacterium abscessus): >50 µM | MIC ([14]; Mycobacteroides abscessus, Experiment 1, read-out: MIC Mycobacterium abscessus): > 50 µM and > 109 µg/mL | MIC ([14]; Mycobacteroides abscessus, Experiment 2, three replicate columns, read-out: MIC (µM) Mycobacterium abscessus): > 50 µM | MIC ([14]; Mycobacteroides abscessus, Experiment 2, three replicate columns, read-out: MIC (µg/ml) Mycobacterium abscessus): > 109 µg/mL | MIC ([14]; Mycobacteroides abscessus, mean ± SD, read-out: MIC Mycobacterium abscessus): > 50 µM
